Measured values taken from patent US20060030620A1, “Method for treating and/or preventing ischemia/reperfusion injury” (priority 2004, published 2006).

Experiments:
Assay type in all cases: in vivo, Spargue-Dawley rats
[1] = test system: liver ischemia/reperfusion injury; assay: Lipid peroxidation assay (liver MDA, thiobarbituric acid method); set-up: post-ischemic MDA levels in liver: unit not given here
Experimental: (§1) The liver was then examined by the following assays.
(§2) The collected blood samples were centrifuged at 4000 g×5 min to separate the plasma, and the levels of aspartate transaminase (AST), alanine transaminase (ALT), and alkaline phosphatase (ALP) in the bile juice were measured with an auto-analyzer (model H-747E, Hitachi Co., Tokyo). Lipid peroxide was followed as Masugi and Nagamura stated by thiobarbituric acid method using malondialdehyde (MDA) tetraethyl acetal as the standard and expressed results of MDA equivalents.
(§3) Protein contents of the collected tissues were assayed with Lowry using bovine serum albumin as the standard. The collected tissue was fixed in saline buffered with 10% formaldehyde solution, embedded in paraffin wax, sliced into 5 μm thickness of each, stained with H&E staining method, and examined with a light microscope by a pathologist independently.
(§4) Each data was expressed as mean±SD.

[2] = test system: liver ischemia/reperfusion injury; assay: Plasma AST/ALT during hepatic ischemia/reperfusion
Experimental: as §1, §2, §4

[3] = test system: liver ischemia/reperfusion injury; assay: Bile juice ALP during hepatic ischemia/reperfusion; details: after 120 minutes of reperfusion, MA 100 mg/kg
Experimental: as §1, §2, §4

[4] = test system: liver ischemia/reperfusion injury; assay: Histological investigation of the liver after hepatic I/R (H&E); details: 70 minutes of ischemia and 120 minutes of reperfusion; MA-treated ischemia group
Experimental: as §1, §3
Histological changes in liver after hepatic I/R were kept with the above biochemical experiments of plasma and bile juice analysis. The placebo group was shown on A (100×) and B (400×); wherein “1” is severe endothelial damage, “2” is bile duct dilation, “3,” is parenchyma edema with RBC congestion, “4,” is Cholestasis, and “5” is hepatocyte necrosis. […] The dilated bile duct might be attributed to ischemic process when the clamp was used to stop the blood flow and simultaneously obstruct the bile flow. Parenchyma edema and RBC congestion might develop from the inflammatory process during I/R process.

[5] = test system: liver ischemia/reperfusion injury; assay: Bile flow during hepatic ischemia/reperfusion
From the text: as §1, §4

[6] = MA 100 mg/kg iv 10 min prior to reperfusion, 70 min ischemia, after 120-minute reperfusion, mean±SD
[7] = after 60 minutes of reperfusion, P<0.05
[8] = after 120 minutes of reperfusion, MA 100 mg/kg iv

Magnesium ascorbate
post-ischemic MDA levels in liver ([1]; 70 min ischemia and 120 min reperfusion, MA 100 mg/kg 10 min prior to reperfusion, mean±SD, P<0.02): 1054±414
MDA concentration in liver tissue versus vehicle-treated ischemia group ([1]; MA 100 mg/kg infusion 10 minutes prior to reperfusion, after 120 minutes of reperfusion): significantly decreased
increase in AST and ALT activity versus vehicle-treated ischemia rats ([2]; 1 to 4 hours after reperfusion, MA 100 mg/kg, P<0.05): significantly suppressed
average plasma AST level [2, 6]: 2040±882 U/l
plasma ALT level [2, 6]: 4466±1745 U/l
plasma AST levels compared with the placebo group ([2]; after 30 minutes of reperfusion, P<0.05): significantly decreased
plasma AST levels compared with the placebo group [2, 7]: significantly decreased
decrease of the elevated serum ALT level [2, 8]: 69%
decrease of the elevated serum AST level [2, 8]: 78%
relief of the ALP in bile juice from I/R damage [3]: about 70%
bile ALP ([3]; mean±SD): 34.5±8.3 U/l
histological findings of the liver (H&E) [4]: minor lesions were observed, damaged to the vascular endothelium and cholestasis was also mild
bile flow compared with the control group (sham) ([5]; P=0.21): significantly restored resemble to normal values
choleretic effect compared with the placebo group [5, 7]: significantly increased
secreted bile juice versus vehicle-treated ischemia group ([5]; after 120 minutes of reperfusion injury): significantly doubled
bile flow ([5]; after 120 minutes of reperfusion, MA 100 mg/kg iv, mean±SD): 1.353 ± 0.351 mL/h/kg
bile flow compared with the vehicle-treated ischemia group ([5]; from 60 minutes to 240 minutes of reperfusion, P<0.05): significantly restored
